Measured values taken from patent US11844844B2, “Fusion protein comprising glutathione-s-transferase and protein having binding affinity target cell or target protein, and use thereof” (UNIST(ULSAN NATIONAL INSTITUTE OF SCIENCE AND TECHNOLOGY), priority 2017, dated 2023).

Test system: RAW 264.7 cells
Assay: Cytotoxicity against macrophage, alamar blue
Type: cell-based
Details: CPT 0.01 to 2.5 μg/ml, 48 hr; PCSNs stored in 55% FBS 1 hr
Description: In detail, CPT-loaded HER2-PCSNs were prepared and stored in a high concentration of serum protein environment of 55% FBS for 1 hr. Thereafter, the stored HER2-PCSNs were collected and washed, and then treated to RAW 264.7 cells at a CPT concentration of 0.01 μg/ml, 0.1 μg/ml, 0.25 μg/ml, 0.5 μg/ml, 1.0 μg/ml, or 2.5 μg/ml, followed by incubation for 48 hr. After completing incubation, cell viability was examined using an alamar blue dye. As a control for comparison of the cell killing effect, RAW 264.7 cells were treated with free CPT which was not loaded in nanoparticles, and cell viability thereof was examined.

Q: CC[C@@]1(O)C(=O)OCc2c1cc1n(c2=O)Cc2cc3ccccc3nc2-1 [free CPT, camptothecin] was tested. Which “cell killing effect on macrophages (cell viability)” value did it give?
A: Its value is “exhibited the cell killing effect on RAW 264.7 cells with increasing treatment concentrations”.
